Data as given in patent US6596873B1, “2-and 2,5-substituted phenylketoenols” (Bayer Aktiengesellschaft, priority 1996, dated 2003).

Legend:
Assay type in all cases: in vivo
[1] = system: fruit tree spider mite (Panonychus ulmi); test: Panonychus test; conditions: active compound concentration of 0.004%, after 7 days; plum trees sprayed
Method: Panonychus Test [table] To prepare a suitable preparation of active compound, 1 part by weight of active compound is mixed with the stated amount of solvent and the stated amount of emulsifier, and the concentrate is diluted with water to the desired concentration. Plum trees (Prunus domestica) approximately 30 cm in height which are severely infested by all stages of the fruit tree spider mite (Panonychus ulmi) are sprayed with an active compound preparation of the desired concentration. After the specified period of time, the destruction in % is determined. 100% means that all the spider mites have been killed; 0% means that none of the spider mites have been killed.

[2] = system: caterpillars of the diamond-back moth (Plutella maculipennis); test: Plutella test; conditions: active compound concentration of 0.1%, after 7 days; cabbage leaves dipped
Method: Plutella Test [table] To produce a suitable preparation of active compound, 1 part by weight of active compound is mixed with the stated amount of solvent and the stated amount of emulsifier, and the concentrate is diluted with water to the desired concentration. Cabbage leaves (Brassica oleracea) are treated by being dipped into the preparation of active compound of the desired concentration and are infested with caterpillars of the diamond-back moth (Plutella maculipennis) while the leaves are still moist. After the specified period of time, the destruction in % is determined. 100% means that all the caterpillars have been killed, 0% means that none of the caterpillars have been killed.

[3] = system: larvae of the green rice leaf hopper (Nephotettix cincticeps); test: Nephotettix test; conditions: active compound concentration of 0.1%, after 6 days; rice seedlings dipped
Method: Nephotettix Test [table] To produce a suitable preparation of active compound, 1 part by weight of active compound is mixed with the stated amount of solvent and the stated amount of emulsifier, and the concentrate is diluted with water to the desired concentration. Rice seedlings (Oryzae sativa) are treated by being dipped into the preparation of the active compound of the desired concentration and are infested with larvae of the green rice leaf hopper (Nephotettix cincticeps) while the seedlings are still moist. After the specified period of time, the destruction in % is determined. 100% means that all the larvae have been killed; 0% means that none of the larvae have been killed.

[4] = system: mustard beetle larvae (Phaedon cochleariae); test: Phaedon larvae test; conditions: active compound concentration of 0.1%, after 7 days; cabbage leaves dipped
Method: Phaedon Larvae Test [table] To produce a suitable preparation of active compound, 1 part by weight of active compound is mixed with the stated amount of solvent and the stated amount of emulsifier, and the concentrate is diluted with water to the desired concentration. Cabbage leaves (Brassica oleracea) are treated by being dipped into the preparation of the active compound of the desired concentration and are infested with mustard beetle larvae (Phaedon cochleariae) while the leaves are still moist. After the specified period of time, the destruction in % is determined. 100% means that all the beetle larvae have been killed; 0% means that none of the beetle larvae have been killed.

[5] = system: caterpillars of the owlet moth (Spodoptera frugiperda); test: Spodoptera test; conditions: active compound concentration of 0.1%, after 7 days; cabbage leaves dipped
Method: To produce a suitable preparation of active compound, 1 part by weight of active compound is mixed with the stated amount of solvent and the stated amount of emulsifier, an d the concentrate is diluted with water to the d esired concentration.
Cabbage leaves (Brassica oleracea) are treated by being dipped into the preparation of the active compound of the desired concentration and are infested with caterpillars of the owlet moth (Spodoptera frugiperda) as long, as the leaves are still moist.
After the specified period of time, the destruction in % is determined. 100% means that all the caterpillars have been killed; 0% means that none of the caterpiliars have been killed.

Structure (SMILES) | efficacy (destruction in %) [1] [%] | destruction in % [2] [%] | destruction in % [3] [%] | destruction in % [4] [%] | destruction in % [5] [%]
CC(C)(C)C(=O)OC1=C(c2ccccc2Cl)C(=O)OC12CCCCC2 [Example I-2-b-1] | 100 | – | – | – | –
Cc1ccccc1-c1c(O)c(C)c(-c2ccccn2)oc1=O [Example I-4-a-1] | – | 100 | 100 | 100 | 85
Cc1ccccc1C1=C(O)C2(CCC(C)CC2)NC1=O (centres unmarked) [Example I-1-a-1] | – | – | 100 | 100 | 85
